Earlier results in EP0243248A1, “Compositions for the treatment of baldness and alopecia” (LABORATOIRES PHARMACEUTIQUES ROCHE-POSAY, priority 1986, dated 1987).

Details: for solubilité dans l'alcool: alcohol, in words; for solubilité dans les solutions alcalines / en milieu alcalin: alkaline solutions / alkaline medium; for solubilité dans l'eau: water

Row | SMILES | solubilité dans l'alcool | solubilité dans les solutions alcalines / en milieu alcalin | solubilité dans l'eau | solubilité dans le chloroforme (chloroform) | solubilité dans l'ether (ether)
1 | CC1=NS(=O)(=O)c2cc(Cl)ccc2N1 [diazoxyde, chloro-7 méthyl-3 benzothiadiazine 1, 2,4 dioxyde-1,1] | solubles | solubles | insolubles |  | 
2 | O=C1NC(=O)C(c2ccccc2)(c2ccccc2)N1 [Phenytoïne, diphényl-5,5 imidazolidinedione-2,4] |  |  | pratiquement insoluble |  | 
3 | O=C1NC(=O)C(c2ccccc2)(c2ccccc2)N1 [diphénylhydantoï-nate de sodium] | un peu soluble | soluble | un peu soluble | insoluble | insoluble
